Experimental data reported in article PMC7719162, “Positioning of an unprecedented spiro[5.5]undeca ring system into kinase inhibitor space” (Scientific Reports, 2020).
Read-outs that look alike come from different tables or passages of the source.

Assays:
[1] = target: GSK3β (Homo sapiens, UniProt P49841); experiment: GSK3β radiolabelled kinase assay (% residual activity, IC50, ATP competition); type: biochemical; details: for remaining activity at 10 µM: at 10 μM compound
[2] = tested on: NO production in LPS-activated BV-2 cells; experiment: NO production assay (Griess) in LPS-activated BV-2 cells; type: cell-based, murine; details: Mus musculus, read-out: NO Inhibition IC50
Method: (§1) 3-(4,5-dimethylthiazol-2-yl)-2,5-diphenyl-tetrazolium bromide (MTT) assay was performed to evaluate the cytotoxicity of the samples to the microglia. BV2 cells at the density of 4 × 10^4 cells /well were seeded in the 96 well plate and incubated for 24 h. Seeded cells were pre-treated with different concentration of the samples, and LPS (100 ng/ml) activation was performed after 30 min of compound treatment. Treated plate were incubated for 24 h in the incubator and nitric oxide assay and cell viability assay was performed. Treated cell’s conditioned medium was used to evaluate the NO assay, and the attached cells were used to evaluate the cell viability assay. 50 µL of conditioned medium (CM) from treated cells were transferred to a new 96 well plate for NO assay. This CM was mixed with the equal volume of the mixture of Gries reagent ((1% sulfanilamide and 0.1% N-1-napthylethylenediamine dihydrochloride). NaNO2 was used as standard and the colorimetric change were evidenced by measuring its OD at 540 nm in a microplate reader. The cells in the plate were incubated for 1 h with MTT solution making it the final concentration of […]. Blue stained cells were incubated with 200 ul of DMSO and the solution get changed to purple/formazan color and it was observed by measuring the absorbance at 570 nm in a microplate reader.NG-mono-methyl-L-arginine (L-NMMA), a well-known nitric oxide synthase (NOS) inhibitor, was used as a positive control.

[3] = MTT cell viability assay; type: cell-based, murine; details: mouse, BV-2 microglia cells (LPS-activated), mean ± SD; for viability at 24 h, 5 µM: 5 μM compound, % of LPS; for viability at 24 h, 1 µM: 1 μM compound
Method: as §1

[4] = target: T1, TRPM7/CHAK1 (Homo sapiens, UniProt Q96QT4); experiment: Kinase panel assay (radiolabelled); type: biochemical; details: control NH125
T1 construct: purchased Reaction Biology Corp
Method: (§2) Every inhibitory activity of tested compounds was measured by radiolabelled method of Reaction Biology Corp). The radiolabelled ATP ([γ-^33P] ATP) replaced a substrate with ^33P-phosphorylated substrate so that the activity of a kinase was measured from the radiolabelled phosphorylated substrate. Kinase panel assay was tested at 30 μM testing compounds with an ATP concentration of 10 μM and a substrate concentration of 10 μM. % Residual activity against GSK3β was measured at 10 uM compounds 1 and 2. […] Curve fits of control compounds were performed where the enzyme activities at the highest concentration of compounds were less than 65%. The concentration of DMSO was controlled and raw data, % kinase activity was calculated relative to DMSO controls.

[5] = target: T2, EIF2AK1 (Homo sapiens, UniProt Q9BQI3); experiment: Kinase panel assay (radiolabelled); type: biochemical; details: control GSK-2606414
T2 construct: purchased Reaction Biology Corp
Method: as §2

[6] = target: T3, PDK1/PDHK1 (Homo sapiens, UniProt Q15118); experiment: Kinase panel assay (radiolabelled); type: biochemical; details: control GW5074
T3 construct: purchased Reaction Biology Corp
Method: as §2

[7] = target: T4, PDK4/PDHK4 (Homo sapiens, UniProt Q16654); experiment: Kinase panel assay (radiolabelled); type: biochemical; details: control GW5074
T4 construct: purchased Reaction Biology Corp
Method: as §2

[8] = target: T5, PDK2/PDHK2 (Homo sapiens, UniProt Q15119); experiment: Kinase panel assay (radiolabelled); type: biochemical; details: control GW5074
T5 construct: purchased Reaction Biology Corp
Method: as §2

[9] = target: T6, PDK3/PDHK3 (Homo sapiens, UniProt Q15120); experiment: Kinase panel assay (radiolabelled); type: biochemical; details: control GW5074
T6 construct: purchased Reaction Biology Corp
Method: as §2

Sequence of GSK3β (P49841 whole entry): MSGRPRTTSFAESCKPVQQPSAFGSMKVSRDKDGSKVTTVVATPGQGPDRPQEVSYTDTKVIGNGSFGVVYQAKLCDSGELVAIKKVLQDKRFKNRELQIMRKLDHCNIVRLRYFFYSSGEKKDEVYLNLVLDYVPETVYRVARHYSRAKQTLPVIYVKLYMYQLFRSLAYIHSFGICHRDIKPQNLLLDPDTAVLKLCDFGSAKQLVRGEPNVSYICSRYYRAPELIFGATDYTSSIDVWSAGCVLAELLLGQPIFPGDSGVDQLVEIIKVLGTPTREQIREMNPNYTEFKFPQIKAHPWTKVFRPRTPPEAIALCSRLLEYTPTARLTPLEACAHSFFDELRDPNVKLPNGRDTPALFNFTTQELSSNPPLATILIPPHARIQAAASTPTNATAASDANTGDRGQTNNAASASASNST
T6 sequence (Q15120 whole entry): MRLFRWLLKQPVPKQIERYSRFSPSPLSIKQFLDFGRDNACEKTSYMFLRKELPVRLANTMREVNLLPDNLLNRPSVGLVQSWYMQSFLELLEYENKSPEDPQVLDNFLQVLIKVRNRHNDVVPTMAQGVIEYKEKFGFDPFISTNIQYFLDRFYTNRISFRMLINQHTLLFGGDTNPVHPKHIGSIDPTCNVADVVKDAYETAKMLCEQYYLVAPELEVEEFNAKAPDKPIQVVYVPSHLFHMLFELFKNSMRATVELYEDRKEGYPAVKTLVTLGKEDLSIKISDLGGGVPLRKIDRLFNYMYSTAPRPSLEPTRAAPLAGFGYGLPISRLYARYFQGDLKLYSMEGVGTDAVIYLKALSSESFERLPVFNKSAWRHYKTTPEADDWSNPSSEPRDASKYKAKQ
T2 sequence (Q9BQI3 whole entry): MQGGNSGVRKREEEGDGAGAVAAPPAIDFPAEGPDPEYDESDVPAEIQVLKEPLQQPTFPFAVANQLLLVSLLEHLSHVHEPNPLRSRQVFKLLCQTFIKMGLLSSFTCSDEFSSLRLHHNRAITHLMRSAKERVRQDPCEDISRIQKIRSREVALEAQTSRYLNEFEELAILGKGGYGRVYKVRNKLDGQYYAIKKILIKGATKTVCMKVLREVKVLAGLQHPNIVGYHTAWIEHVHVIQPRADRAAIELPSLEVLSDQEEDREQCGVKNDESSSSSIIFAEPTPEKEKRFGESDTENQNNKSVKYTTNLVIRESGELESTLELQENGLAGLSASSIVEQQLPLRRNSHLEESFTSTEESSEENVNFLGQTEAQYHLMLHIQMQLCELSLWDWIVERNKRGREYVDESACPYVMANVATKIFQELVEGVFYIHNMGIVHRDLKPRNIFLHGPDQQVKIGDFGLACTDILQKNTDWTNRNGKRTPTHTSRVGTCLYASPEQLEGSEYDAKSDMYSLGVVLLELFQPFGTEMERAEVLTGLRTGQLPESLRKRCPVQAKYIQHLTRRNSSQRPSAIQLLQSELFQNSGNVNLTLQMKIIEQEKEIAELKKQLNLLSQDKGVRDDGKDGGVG
T4 sequence (Q16654 whole entry): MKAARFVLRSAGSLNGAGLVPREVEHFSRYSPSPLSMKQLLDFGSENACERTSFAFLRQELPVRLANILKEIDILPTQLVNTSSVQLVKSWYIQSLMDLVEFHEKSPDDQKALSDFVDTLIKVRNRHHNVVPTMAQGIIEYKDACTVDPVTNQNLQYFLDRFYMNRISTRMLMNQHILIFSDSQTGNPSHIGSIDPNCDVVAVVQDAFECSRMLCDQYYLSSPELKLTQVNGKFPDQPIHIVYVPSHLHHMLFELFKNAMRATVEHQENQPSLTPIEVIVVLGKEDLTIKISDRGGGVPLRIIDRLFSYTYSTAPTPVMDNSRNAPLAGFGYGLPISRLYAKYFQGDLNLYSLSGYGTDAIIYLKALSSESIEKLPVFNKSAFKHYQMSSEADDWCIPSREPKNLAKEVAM
T3 sequence (Q15118 29-436): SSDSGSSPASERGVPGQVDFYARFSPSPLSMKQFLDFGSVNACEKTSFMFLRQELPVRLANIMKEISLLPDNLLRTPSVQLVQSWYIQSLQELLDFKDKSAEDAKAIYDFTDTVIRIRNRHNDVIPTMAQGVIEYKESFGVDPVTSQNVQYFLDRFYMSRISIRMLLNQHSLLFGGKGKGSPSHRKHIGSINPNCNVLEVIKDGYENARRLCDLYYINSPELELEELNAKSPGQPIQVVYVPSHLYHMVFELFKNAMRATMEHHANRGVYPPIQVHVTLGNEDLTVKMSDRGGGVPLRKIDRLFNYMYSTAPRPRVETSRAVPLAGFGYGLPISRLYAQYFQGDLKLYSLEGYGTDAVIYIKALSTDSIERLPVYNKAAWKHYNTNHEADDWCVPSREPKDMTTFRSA
T1 sequence (Q96QT4 whole entry): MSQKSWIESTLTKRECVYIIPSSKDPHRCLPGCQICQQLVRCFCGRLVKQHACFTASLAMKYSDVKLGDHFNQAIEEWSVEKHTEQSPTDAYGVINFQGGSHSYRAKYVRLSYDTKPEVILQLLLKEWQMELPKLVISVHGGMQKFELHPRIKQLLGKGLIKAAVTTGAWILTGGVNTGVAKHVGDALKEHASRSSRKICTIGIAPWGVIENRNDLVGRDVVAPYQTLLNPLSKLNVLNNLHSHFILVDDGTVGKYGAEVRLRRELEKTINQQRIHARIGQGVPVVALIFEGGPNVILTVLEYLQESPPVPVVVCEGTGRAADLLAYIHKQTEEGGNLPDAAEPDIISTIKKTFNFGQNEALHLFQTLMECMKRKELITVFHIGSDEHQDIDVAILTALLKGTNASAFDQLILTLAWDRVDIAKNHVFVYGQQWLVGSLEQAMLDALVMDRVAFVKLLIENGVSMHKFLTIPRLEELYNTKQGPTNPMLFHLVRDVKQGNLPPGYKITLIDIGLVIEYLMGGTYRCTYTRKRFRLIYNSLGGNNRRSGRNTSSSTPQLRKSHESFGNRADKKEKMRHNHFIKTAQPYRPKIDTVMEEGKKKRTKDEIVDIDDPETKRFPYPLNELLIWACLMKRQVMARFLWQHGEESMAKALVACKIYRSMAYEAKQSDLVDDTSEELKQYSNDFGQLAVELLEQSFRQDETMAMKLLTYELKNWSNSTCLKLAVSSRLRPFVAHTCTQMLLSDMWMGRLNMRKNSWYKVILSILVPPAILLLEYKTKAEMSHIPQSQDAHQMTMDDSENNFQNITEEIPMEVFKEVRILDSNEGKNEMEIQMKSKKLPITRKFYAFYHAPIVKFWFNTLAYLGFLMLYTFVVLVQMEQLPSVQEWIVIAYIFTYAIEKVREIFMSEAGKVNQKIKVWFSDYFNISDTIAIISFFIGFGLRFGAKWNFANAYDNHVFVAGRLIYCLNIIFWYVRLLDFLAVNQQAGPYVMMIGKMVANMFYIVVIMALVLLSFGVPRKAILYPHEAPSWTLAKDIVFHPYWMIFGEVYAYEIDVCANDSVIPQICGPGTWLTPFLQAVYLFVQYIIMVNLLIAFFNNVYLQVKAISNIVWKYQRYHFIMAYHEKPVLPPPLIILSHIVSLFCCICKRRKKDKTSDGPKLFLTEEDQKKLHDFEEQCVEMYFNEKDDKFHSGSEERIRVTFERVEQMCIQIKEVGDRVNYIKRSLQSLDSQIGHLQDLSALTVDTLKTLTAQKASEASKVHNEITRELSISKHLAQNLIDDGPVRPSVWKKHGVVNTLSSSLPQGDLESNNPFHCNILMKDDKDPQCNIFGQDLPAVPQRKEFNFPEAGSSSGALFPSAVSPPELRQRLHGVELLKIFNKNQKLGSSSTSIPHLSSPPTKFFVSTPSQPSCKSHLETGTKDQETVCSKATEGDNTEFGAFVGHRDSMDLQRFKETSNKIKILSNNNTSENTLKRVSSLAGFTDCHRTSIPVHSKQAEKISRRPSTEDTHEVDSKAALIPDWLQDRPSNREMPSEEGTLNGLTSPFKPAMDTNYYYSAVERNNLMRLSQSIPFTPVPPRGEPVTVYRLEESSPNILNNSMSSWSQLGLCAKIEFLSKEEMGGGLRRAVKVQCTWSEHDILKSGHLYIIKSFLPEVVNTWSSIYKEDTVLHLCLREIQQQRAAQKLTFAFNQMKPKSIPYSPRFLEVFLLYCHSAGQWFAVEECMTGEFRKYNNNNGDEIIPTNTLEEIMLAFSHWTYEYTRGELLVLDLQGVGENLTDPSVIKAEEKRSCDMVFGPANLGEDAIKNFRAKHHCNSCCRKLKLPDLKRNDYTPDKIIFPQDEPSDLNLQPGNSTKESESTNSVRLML

Structure (SMILES)	remaining activity at 10 µM [1]	IC50 [2]	viability at 24 h, 5 µM [3]	further results
Cc1cc(=O)oc2cc(-n3cc(CC4COC5(C=CC(=O)C=C5)N(c5ccccc5)C4=O)nn3)ccc12 (centres unmarked) [2p, 3-((1-(4-methyl-2-oxo-2H-chromen-7-yl)-1H-1,2,3-triazol-4-yl)methyl)-5-phenyl-1-oxa-5-azaspiro[5.5]undeca-7,10-diene-4,9-dione]	35.7 ± 3.7%	850 ± 190 nM	97 ± 2%	IC50 ([1]; ATP 1 μM (Table 2), read-out: IC50 on GSK3β (converted)): 11400 nM
COc1cc(-n2cc(CC3COC4(C=CC(=O)C=C4)N(c4ccccc4)C3=O)nn2)ccc1F (centres unmarked) [2n, 3-((1-(4-fluoro-3-methoxyphenyl)-1H-1,2,3-triazol-4-yl)methyl)-5-phenyl-1-oxa-5-azaspiro[5.5]undeca-7,10-diene-4,9-dione]	85.6 ± 2%	850 ± 40 nM	102 ± 8%	–
COc1ccc(-n2cc(CC3COC4(C=CC(=O)C=C4)N(c4ccccc4)C3=O)nn2)cc1 (centres unmarked) [2h, 3-((1-(4-Methoxyphenyl)-1H-1,2,3-triazol-4-yl)methyl)-5-phenyl-1-oxa-5-azaspiro[5.5]undeca-7,10-diene-4,9-dione]	112 ± 4.5%	760 ± 10 nM	124 ± 7%	–
O=C1C=CC2(C=C1)OCC(Cc1cn(C34CC5CC(CC(C5)C3)C4)nn1)C(=O)N2c1ccccc1 [2q, 3-((1-((3R,5S)-adamantan-1-yl)-1H-1,2,3-triazol-4-yl)methyl)-5-phenyl-1-oxa-5-azaspiro[5.5]undeca-7,10-diene-4,9-dione]	71.6 ± 1.4%	780 ± 100 nM	87 ± 7%	–
O=C1C=CC2(C=C1)OCC(Cc1cn(-c3ccc4c(c3)OCO4)nn1)C(=O)N2c1ccccc1 (centres unmarked) [2o, 3-((1-(benzo[d][1,3]dioxol-5-yl)-1H-1,2,3-triazol-4-yl)methyl)-5-phenyl-1-oxa-5-azaspiro[5.5]undeca-7,10-diene-4,9-dione]	75 ± 0.7%	740 ± 80 nM	89 ± 8%	–
CCCCCCCCCCCCCCCCn1cc[n+](Cc2ccccc2)c1C [NH125, reference compound]	–	–	–	IC50 [4]: 5860 nM
CC(=O)Nc1ccc(-n2cc(CC3COC4(C=CC(=O)C=C4)N(c4ccccc4)C3=O)nn2)cc1 (centres unmarked) [2l, N-(4-(4-((4,9-Dioxo-5-phenyl-1-oxa-5-azaspiro[5.5]undeca-7,10-dien-3-yl)methyl)-1H-1,2,3-triazol-1-yl)phenyl)acetamide]	122 ± 2.3%	930 ± 60 nM	109 ± 16%	–
COc1cc(OC)cc(-n2cc(CC3COC4(C=CC(=O)C=C4)N(c4ccccc4)C3=O)nn2)c1 (centres unmarked) [2m, 3-((1-(3,5-B=Dimethoxyphenyl)-1H-1,2,3-triazol-4-yl)methyl)-5-phenyl-1-oxa-5-azaspiro[5.5]undeca-7,10-diene-4,9-dione]	114 ± 4.5%	1220 ± 300 nM	108 ± 5%	–
[H]/N=C(/NC)NCCC[C@H](N)C(=O)O [L-NMMA, NG-mono-methyl-L-arginine, reference compound]	–	19600 ± 420 nM	105 ± 4%	viability at 24 h, 1 µM [3]: 101 ± 1.6%
C#CCC1COC2(C=CC(=O)C=C2)N(c2ccccc2)C1=O (centres unmarked) [compound 7, 5-Phenyl-3-(prop-2-yn-1-yl)-1-oxa-5-azaspiro[5.5]undeca-7,10-diene-4,9-dione]	55.7 ± 8.4%	680 ± 70 nM	100 ± 24%	–
O=C1C=CC2(C=C1)OCC(Cc1cn(-c3cccnc3)nn1)C(=O)N2c1ccccc1 (centres unmarked) [2b, 5-Phenyl-3-((1-(pyridin-3-yl)-1H-1,2,3-triazol-4-yl)methyl)-1-oxa-5-azaspiro[5.5]undeca-7,10-diene-4,9-dione]	87.5 ± 0.6%	870 ± 110 nM	120 ± 11%	–
N#Cc1cccc(-n2cc(CC3COC4(C=CC(=O)C=C4)N(c4ccccc4)C3=O)nn2)c1 (centres unmarked) [2g, 3-(4-((4,9-Dioxo-5-phenyl-1-oxa-5-azaspiro[5.5]undeca-7,10-dien-3-yl)methyl)-1H-1,2,3-triazol-1-yl)benzonitrile]	41.8 ± 0.9%	800 ± 130 nM	128 ± 17%	–
O=C1C=CC2(C=C1)OCC(Cc1cn(-c3cccc(Cc4ccccc4)c3)nn1)C(=O)N2c1ccccc1 (centres unmarked) [2j, 3-((1-(3-Benzylphenyl)-1H-1,2,3-triazol-4-yl)methyl)-5-phenyl-1-oxa-5-azaspiro[5.5]undeca-7,10-diene-4,9-dione]	10.5 ± 2%	630 ± 10 nM	74 ± 4%	IC50 ([1]; ATP 1 µM, 10-dose, threefold dilution from 10 μM, read-out: IC50 of GSK3β activity): 2650 nM; IC50 ([1]; ATP 10 µM, 10-dose, threefold dilution from 10 μM, read-out: IC50 of GSK3β activity): 3530 nM; IC50 ([1]; ATP 50 µM, 10-dose, threefold dilution from 10 μM, read-out: IC50 of GSK3β activity): 3790 nM; IC50 ([1]; ATP 100 µM, 10-dose, threefold dilution from 10 μM, read-out: IC50 of GSK3β activity): 4040 nM; IC50 ([1]; ATP 200 µM, 10-dose, threefold dilution from 10 μM, read-out: IC50 of GSK3β activity): 3450 nM; dependence of GSK3β IC50 on ATP concentration ([1]; ATP 1, 10, 50, 100 and 200 µM): retained its IC50 activity regardless of the ATP concentration; viability at 24 h, 1 µM [3]: 107 ± 6.88%
O=C1C=CC2(C=C1)OCC(Cc1ccccc1)C(=O)N2c1ccccc1 (centres unmarked) [1a]	85.8 ± 16.1%	540 nM	74 ± 7%	viability at 24 h, 1 µM [3]: 95 ± 6.87%
O=C1C=CC2(C=C1)OCC(Cc1cn(-c3ccc(S(=O)(=O)C(F)(F)F)cc3)nn1)C(=O)N2c1ccccc1 (centres unmarked) [2k, 5-Phenyl-3-((1-(4-((trifluoromethyl)sulfonyl)phenyl)-1H-1,2,3-triazol-4-yl)methyl)-1-oxa-5-azaspiro[5.5]undeca-7,10-diene-4,9-dione]	35.1 ± 4.2%	770 ± 60 nM	71 ± 3%	–
O=C1C=CC2(C=C1)OCC(Cc1cn(Cc3ccccc3)nn1)C(=O)N2c1ccccc1 (centres unmarked) [2r, 3-((1-Benzyl-1H-1,2,3-triazol-4-yl)methyl)-5-phenyl-1-oxa-5-azaspiro[5.5]undeca-7,10-diene-4,9-dione]	61.7 ± 13.8%	650 ± 60 nM	75 ± 11%	viability at 24 h, 1 µM [3]: 101.3 ± 0.67%
Cn1cc(-c2ccc3c(c2)CCN3C(=O)Cc2cccc(C(F)(F)F)c2)c2c(N)ncnc21 [GSK-2606414, reference compound]	–	–	–	IC50 [5]: 106 nM
CSc1ccc(-n2cc(CC3COC4(C=CC(=O)C=C4)N(c4ccccc4)C3=O)nn2)cc1 (centres unmarked) [2i, 3-((1-(4-(Methylthio)phenyl)-1H-1,2,3-triazol-4-yl)methyl)-5-phenyl-1-oxa-5-azaspiro[5.5]undeca-7,10-diene-4,9-dione]	66.9 ± 11.4%	980 ± 40 nM	121 ± 2%	–
O=C1C=CC2(C=C1)OCC(Cc1cn(-c3ccc(F)cc3)nn1)C(=O)N2c1ccccc1 (centres unmarked) [2c, 3-((1-(4-Fluorophenyl)-1H-1,2,3-triazol-4-yl)methyl)-5-phenyl-1-oxa-5-azaspiro[5.5]undeca-7,10-diene-4,9-dione]	84.8 ± 5.3%	780 ± 40 nM	109 ± 13%	–
O=C1C=CC2(C=C1)OCC(Cc1cn(-c3ccc(Br)cc3)nn1)C(=O)N2c1ccccc1 (centres unmarked) [2e, 3-((1-(4-Bromophenyl)-1H-1,2,3-triazol-4-yl)methyl)-5-phenyl-1-oxa-5-azaspiro[5.5]undeca-7,10-diene-4,9-dione]	69.6 ± 5.1%	670 ± 10 nM	93 ± 6%	viability at 24 h, 1 µM [3]: 106 ± 1.28%
O=C1Nc2ccc(I)cc2/C1=C/c1cc(Br)c(O)c(Br)c1 [GW5074, reference compound]	–	–	–	IC50 [6]: 12100 nM; IC50 [7]: 2120 nM; IC50 [8]: 3280 nM; IC50 [9]: 1820 nM
O=C1C=CC2(C=C1)OCC(Cc1cn(-c3ccc(C(F)(F)F)cc3)nn1)C(=O)N2c1ccccc1 (centres unmarked) [2f, 5-Phenyl-3-((1-(4-(trifluoromethyl)phenyl)-1H-1,2,3-triazol-4-yl)methyl)-1-oxa-5-azaspiro[5.5]undeca-7,10-diene-4,9-dione]	96.3 ± 16.5%	770 ± 20 nM	115 ± 3%	–
